Data as given in PubChem BioAssay (NCI).
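Abbreviation: GI50, concentration required for 50% inhibition of growth. TGI: concentration producing complete growth inhibition.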

Columns and labels:
Test in all cases: growth of human tumour cells (NCI), 384-well format
HCT-116 colon = system: HCT-116 colon
NCI-H460 NSCLC = system: NCI-H460 NSCLC
PC-3 prostate = system: PC-3 prostate
BT-549 breast = system: BT-549 breast
TK-10 renal = system: TK-10 renal
LOX IMVI melanoma = system: LOX IMVI melanoma
SNB-19 CNS = system: SNB-19 CNS
SF-539 CNS = system: SF-539 CNS
OVCAR-5 ovarian = system: OVCAR-5 ovarian
OVCAR-4 ovarian = system: OVCAR-4 ovarian
OVCAR-8 ovarian = system: OVCAR-8 ovarian
A549 NSCLC = system: A549 NSCLC
SK-OV-3 ovarian = system: SK-OV-3 ovarian
NCI-H226 lung = system: NCI-H226 lung
HOP-62 NSCLC = system: HOP-62 NSCLC
K-562 leukemia = system: K-562 leukemia
MOLT-4 leukemia = system: MOLT-4 leukemia
MDA-MB-231 breast = system: MDA-MB-231 breast
SN12C renal = system: SN12C renal
SK-MEL-5 melanoma = system: SK-MEL-5 melanoma
HCT-15 colon = system: HCT-15 colon
NCI-H322M lung = system: NCI-H322M lung
RXF 393 renal = system: RXF 393 renal
ACHN renal = system: ACHN renal
SF-268 CNS = system: SF-268 CNS
RPMI-8226 leukemia = system: RPMI-8226 leukemia
M14 melanoma = system: M14 melanoma
NCI/ADR-RES ovarian = system: NCI/ADR-RES ovarian
U251 glioblastoma = system: U251 glioblastoma
T-47D breast = system: T-47D breast
HCC-2998 colon = system: HCC-2998 colon
NCI-H23 lung = system: NCI-H23 lung
UO-31 renal = system: UO-31 renal
UACC-257 melanoma = system: UACC-257 melanoma
A498 renal = system: A498 renal
SK-MEL-28 melanoma = system: SK-MEL-28 melanoma
MCF7 breast = system: MCF7 breast
SW-620 colon = system: SW-620 colon
SNB-75 CNS = system: SNB-75 CNS
HOP-92 NSCLC = system: HOP-92 NSCLC
OVCAR-3 ovarian = system: OVCAR-3 ovarian
CCRF-CEM leukemia = system: CCRF-CEM leukemia
786-0 renal = system: 786-0 renal
NCI-H522 lung = system: NCI-H522 lung
SF-295 CNS = system: SF-295 CNS
CAKI-1 renal = system: CAKI-1 renal
HT29 colon = system: HT29 colon
MDA-MB-468 breast = system: MDA-MB-468 breast
UACC-62 melanoma = system: UACC-62 melanoma
IGROV1 ovarian = system: IGROV1 ovarian
HS 578T breast = system: HS 578T breast
DU-145 prostate = system: DU-145 prostate
MDA-MB-435 melanoma = system: MDA-MB-435 melanoma
COLO 205 colon = system: COLO 205 colon
EKVX NSCLC = system: EKVX NSCLC
KM12 colon = system: KM12 colon
HL-60(TB) leukemia = system: HL-60(TB) leukemia

Question: How did the GI50 (HCT-116 colon) turn out when `C[C@H](O)C(=O)N1CCC(CCn2c(Sc3cc4c(cc3Br)OCO4)nc3c(N)ncnc32)CC1` was run?
Answer: 0.518 µM

Question: And the TGI (HCT-116 colon)?
Answer: > 100 µM

Question: And the GI50 (NCI-H460 NSCLC)?
Answer: 0.275 µM

Question: What about the TGI (NCI-H460 NSCLC) of the same compound?
Answer: 0.745 µM

Question: And the GI50 (PC-3 prostate)?
Answer: 0.655 µM

Question: And the TGI (PC-3 prostate)?
Answer: 4.01 µM

Question: What about the GI50 (BT-549 breast) of the same compound?
Answer: 0.41 µM

Question: And the TGI (BT-549 breast)?
Answer: 2.82 µM

Question: And the GI50 (TK-10 renal)?
Answer: 0.522 µM

Question: What about the TGI (TK-10 renal) of the same compound?
Answer: 23.3 µM

Question: And the GI50 (LOX IMVI melanoma)?
Answer: 0.327 µM

Question: And the TGI (LOX IMVI melanoma)?
Answer: 1.07 µM

Question: And the GI50 (SNB-19 CNS)?
Answer: 0.694 µM

Question: What about the TGI (SNB-19 CNS) of the same compound?
Answer: > 100 µM

Question: And the GI50 (SF-539 CNS)?
Answer: 0.223 µM

Question: What about the TGI (SF-539 CNS) of the same compound?
Answer: 0.442 µM

Question: What about the GI50 (OVCAR-5 ovarian) of the same compound?
Answer: 0.723 µM

Question: And the TGI (OVCAR-5 ovarian)?
Answer: > 100 µM

Question: What about the GI50 (OVCAR-4 ovarian) of the same compound?
Answer: 17.3 µM

Question: And the TGI (OVCAR-4 ovarian)?
Answer: > 100 µM

Question: And the GI50 (OVCAR-8 ovarian)?
Answer: 0.272 µM

Question: What about the TGI (OVCAR-8 ovarian) of the same compound?
Answer: 0.707 µM

Question: What about the GI50 (A549 NSCLC) of the same compound?
Answer: 0.318 µM

Question: And the TGI (A549 NSCLC)?
Answer: > 100 µM

Question: And the GI50 (SK-OV-3 ovarian)?
Answer: 0.827 µM

Question: And the TGI (SK-OV-3 ovarian)?
Answer: 76.6 µM

Question: And the GI50 (NCI-H226 lung)?
Answer: 0.568 µM

Question: And the TGI (NCI-H226 lung)?
Answer: 7.66 µM

Question: And the GI50 (HOP-62 NSCLC)?
Answer: 0.582 µM

Question: And the TGI (HOP-62 NSCLC)?
Answer: 27.8 µM

Question: What about the GI50 (K-562 leukemia) of the same compound?
Answer: 0.271 µM

Question: What about the TGI (K-562 leukemia) of the same compound?
Answer: 4.7 µM

Question: What about the GI50 (MOLT-4 leukemia) of the same compound?
Answer: 0.122 µM

Question: And the TGI (MOLT-4 leukemia)?
Answer: 0.268 µM

Question: What about the GI50 (MDA-MB-231 breast) of the same compound?
Answer: 0.537 µM

Question: What about the TGI (MDA-MB-231 breast) of the same compound?
Answer: 7.36 µM

Question: And the GI50 (SN12C renal)?
Answer: 0.333 µM

Question: What about the TGI (SN12C renal) of the same compound?
Answer: 1.84 µM

Question: What about the GI50 (SK-MEL-5 melanoma) of the same compound?
Answer: 0.335 µM

Question: And the TGI (SK-MEL-5 melanoma)?
Answer: 19.6 µM

Question: What about the GI50 (HCT-15 colon) of the same compound?
Answer: 0.757 µM

Question: And the TGI (HCT-15 colon)?
Answer: 15.6 µM

Question: And the GI50 (NCI-H322M lung)?
Answer: 0.593 µM

Question: And the TGI (NCI-H322M lung)?
Answer: 58.1 µM

Question: And the GI50 (RXF 393 renal)?
Answer: 0.346 µM

Question: And the TGI (RXF 393 renal)?
Answer: 26 µM

Question: And the GI50 (ACHN renal)?
Answer: 0.574 µM

Question: And the TGI (ACHN renal)?
Answer: > 100 µM

Question: What about the GI50 (SF-268 CNS) of the same compound?
Answer: 0.174 µM

Question: What about the TGI (SF-268 CNS) of the same compound?
Answer: 0.494 µM

Question: What about the GI50 (RPMI-8226 leukemia) of the same compound?
Answer: 0.472 µM

Question: What about the TGI (RPMI-8226 leukemia) of the same compound?
Answer: 2.53 µM

Question: And the GI50 (M14 melanoma)?
Answer: 0.361 µM

Question: What about the TGI (M14 melanoma) of the same compound?
Answer: 11.8 µM

Question: What about the GI50 (NCI/ADR-RES ovarian) of the same compound?
Answer: 9.82 µM

Question: What about the TGI (NCI/ADR-RES ovarian) of the same compound?
Answer: 35.5 µM

Question: And the GI50 (U251 glioblastoma)?
Answer: 0.395 µM

Question: What about the TGI (U251 glioblastoma) of the same compound?
Answer: 1.45 µM

Question: And the GI50 (T-47D breast)?
Answer: 0.344 µM

Question: And the TGI (T-47D breast)?
Answer: 1.5 µM

Question: What about the GI50 (HCC-2998 colon) of the same compound?
Answer: 0.127 µM

Question: And the TGI (HCC-2998 colon)?
Answer: 0.478 µM

Question: And the GI50 (NCI-H23 lung)?
Answer: 0.214 µM

Question: What about the TGI (NCI-H23 lung) of the same compound?
Answer: 0.64 µM

Question: What about the GI50 (UO-31 renal) of the same compound?
Answer: 0.68 µM

Question: What about the TGI (UO-31 renal) of the same compound?
Answer: 58.8 µM

Question: And the GI50 (UACC-257 melanoma)?
Answer: 4.38 µM

Question: And the TGI (UACC-257 melanoma)?
Answer: 31 µM

Question: And the GI50 (A498 renal)?
Answer: 0.901 µM

Question: What about the TGI (A498 renal) of the same compound?
Answer: > 100 µM

Question: And the GI50 (SK-MEL-28 melanoma)?
Answer: 0.589 µM

Question: What about the TGI (SK-MEL-28 melanoma) of the same compound?
Answer: 31.2 µM

Question: And the GI50 (MCF7 breast)?
Answer: 0.286 µM

Question: And the TGI (MCF7 breast)?
Answer: 2.81 µM

Question: And the GI50 (SW-620 colon)?
Answer: 0.303 µM

Question: What about the TGI (SW-620 colon) of the same compound?
Answer: 2.55 µM

Question: And the GI50 (SNB-75 CNS)?
Answer: 1.49 µM

Question: What about the TGI (SNB-75 CNS) of the same compound?
Answer: 7.22 µM

Question: What about the GI50 (HOP-92 NSCLC) of the same compound?
Answer: 0.624 µM

Question: And the TGI (HOP-92 NSCLC)?
Answer: 2.37 µM

Question: And the GI50 (OVCAR-3 ovarian)?
Answer: 0.405 µM

Question: And the TGI (OVCAR-3 ovarian)?
Answer: 3.27 µM

Question: And the GI50 (CCRF-CEM leukemia)?
Answer: 0.229 µM

Question: And the TGI (CCRF-CEM leukemia)?
Answer: 0.783 µM

Question: What about the GI50 ([…]-0 renal) of the same compound?
Answer: 0.607 µM

Question: What about the TGI (786-0 renal) of the same compound?
Answer: > 100 µM

Question: What about the GI50 (NCI-H522 lung) of the same compound?
Answer: 0.203 µM

Question: And the TGI (NCI-H522 lung)?
Answer: 0.41 µM

Question: What about the GI50 (SF-295 CNS) of the same compound?
Answer: 0.433 µM

Question: And the TGI (SF-295 CNS)?
Answer: 1.7 µM

Question: And the GI50 (CAKI-1 renal)?
Answer: 0.657 µM

Question: And the TGI (CAKI-1 renal)?
Answer: 88.8 µM

Question: What about the GI50 (HT29 colon) of the same compound?
Answer: 0.337 µM

Question: And the TGI (HT29 colon)?
Answer: 20.3 µM

Question: What about the GI50 (MDA-MB-468 breast) of the same compound?
Answer: 0.294 µM

Question: What about the TGI (MDA-MB-468 breast) of the same compound?
Answer: 0.743 µM

Question: And the GI50 (UACC-62 melanoma)?
Answer: 0.534 µM

Question: What about the TGI (UACC-62 melanoma) of the same compound?
Answer: 3.07 µM

Question: And the GI50 (IGROV1 ovarian)?
Answer: 0.299 µM

Question: What about the TGI (IGROV1 ovarian) of the same compound?
Answer: 1.74 µM

Question: And the GI50 (HS 578T breast)?
Answer: 0.327 µM

Question: And the TGI (HS 578T breast)?
Answer: 2.22 µM

Question: What about the GI50 (DU-145 prostate) of the same compound?
Answer: 0.42 µM

Question: What about the TGI (DU-145 prostate) of the same compound?
Answer: 13.8 µM

Question: What about the GI50 (MDA-MB-435 melanoma) of the same compound?
Answer: 1.27 µM

Question: What about the TGI (MDA-MB-435 melanoma) of the same compound?
Answer: > 100 µM

Question: And the GI50 (COLO 205 colon)?
Answer: 0.291 µM

Question: And the TGI (COLO 205 colon)?
Answer: 1.84 µM

Question: What about the GI50 (EKVX NSCLC) of the same compound?
Answer: 0.649 µM

Question: What about the TGI (EKVX NSCLC) of the same compound?
Answer: 25.1 µM

Question: What about the GI50 (KM12 colon) of the same compound?
Answer: 0.318 µM

Question: And the TGI (KM12 colon)?
Answer: 10.9 µM

Question: What about the GI50 (HL-60(TB) leukemia) of the same compound?
Answer: 0.248 µM

Question: And the TGI (HL-60(TB) leukemia)?
Answer: 0.523 µM
